From EP4722207A1, “OXOISOINDOLINYL-SUBSTITUTED TETRAHYDROPYRIMIDINEDIONE DERIVATIVE AND USE THEREOF” (Gluetacs Therapeutics (Shanghai) Co., Ltd., priority 2023, dated 2024)

Columns and labels:
Type in all cases: cell-based
[1] = target: T1, CK1α (Homo sapiens, UniProt P48729+Q96SW2); assay: Western-blot assay, substrate protein degradation in hPBMCs: CK1α; settings: for CK1α substrate protein remaining %: compounds at 50 nM and 500 nM, 24 hours; for substrate protein remaining % CK1α: 24 hours of compound treatment, 50 nM and 500 nM
T1 construct: effects of the compounds of the present disclosure on the expression of target proteins in cells; endogenous in cells; host or cells: human PBMCs (hPBMCs)
T1 sequence (P48729 whole entry): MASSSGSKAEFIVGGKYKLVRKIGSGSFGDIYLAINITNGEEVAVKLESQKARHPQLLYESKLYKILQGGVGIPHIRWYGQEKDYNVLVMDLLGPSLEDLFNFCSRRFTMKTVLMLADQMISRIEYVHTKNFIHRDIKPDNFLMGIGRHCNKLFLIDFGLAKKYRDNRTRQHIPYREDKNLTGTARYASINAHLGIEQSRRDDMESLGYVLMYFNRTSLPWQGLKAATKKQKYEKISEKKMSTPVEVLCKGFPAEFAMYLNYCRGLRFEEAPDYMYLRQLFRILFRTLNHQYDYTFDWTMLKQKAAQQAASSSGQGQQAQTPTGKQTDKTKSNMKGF
T1 sequence (Q96SW2 whole entry): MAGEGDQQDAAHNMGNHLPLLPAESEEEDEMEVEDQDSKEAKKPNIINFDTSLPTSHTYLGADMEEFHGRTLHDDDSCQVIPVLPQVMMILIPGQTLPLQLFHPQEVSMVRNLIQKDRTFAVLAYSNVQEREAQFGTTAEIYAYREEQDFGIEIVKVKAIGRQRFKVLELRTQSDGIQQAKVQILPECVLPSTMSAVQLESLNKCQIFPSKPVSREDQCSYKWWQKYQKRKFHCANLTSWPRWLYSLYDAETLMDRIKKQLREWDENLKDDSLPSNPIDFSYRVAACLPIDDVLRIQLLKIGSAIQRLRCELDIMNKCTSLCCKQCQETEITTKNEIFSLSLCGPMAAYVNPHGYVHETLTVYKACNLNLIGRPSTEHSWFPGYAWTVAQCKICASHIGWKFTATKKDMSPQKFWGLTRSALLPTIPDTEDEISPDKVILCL
T1 sequence (Q16531 whole entry partner): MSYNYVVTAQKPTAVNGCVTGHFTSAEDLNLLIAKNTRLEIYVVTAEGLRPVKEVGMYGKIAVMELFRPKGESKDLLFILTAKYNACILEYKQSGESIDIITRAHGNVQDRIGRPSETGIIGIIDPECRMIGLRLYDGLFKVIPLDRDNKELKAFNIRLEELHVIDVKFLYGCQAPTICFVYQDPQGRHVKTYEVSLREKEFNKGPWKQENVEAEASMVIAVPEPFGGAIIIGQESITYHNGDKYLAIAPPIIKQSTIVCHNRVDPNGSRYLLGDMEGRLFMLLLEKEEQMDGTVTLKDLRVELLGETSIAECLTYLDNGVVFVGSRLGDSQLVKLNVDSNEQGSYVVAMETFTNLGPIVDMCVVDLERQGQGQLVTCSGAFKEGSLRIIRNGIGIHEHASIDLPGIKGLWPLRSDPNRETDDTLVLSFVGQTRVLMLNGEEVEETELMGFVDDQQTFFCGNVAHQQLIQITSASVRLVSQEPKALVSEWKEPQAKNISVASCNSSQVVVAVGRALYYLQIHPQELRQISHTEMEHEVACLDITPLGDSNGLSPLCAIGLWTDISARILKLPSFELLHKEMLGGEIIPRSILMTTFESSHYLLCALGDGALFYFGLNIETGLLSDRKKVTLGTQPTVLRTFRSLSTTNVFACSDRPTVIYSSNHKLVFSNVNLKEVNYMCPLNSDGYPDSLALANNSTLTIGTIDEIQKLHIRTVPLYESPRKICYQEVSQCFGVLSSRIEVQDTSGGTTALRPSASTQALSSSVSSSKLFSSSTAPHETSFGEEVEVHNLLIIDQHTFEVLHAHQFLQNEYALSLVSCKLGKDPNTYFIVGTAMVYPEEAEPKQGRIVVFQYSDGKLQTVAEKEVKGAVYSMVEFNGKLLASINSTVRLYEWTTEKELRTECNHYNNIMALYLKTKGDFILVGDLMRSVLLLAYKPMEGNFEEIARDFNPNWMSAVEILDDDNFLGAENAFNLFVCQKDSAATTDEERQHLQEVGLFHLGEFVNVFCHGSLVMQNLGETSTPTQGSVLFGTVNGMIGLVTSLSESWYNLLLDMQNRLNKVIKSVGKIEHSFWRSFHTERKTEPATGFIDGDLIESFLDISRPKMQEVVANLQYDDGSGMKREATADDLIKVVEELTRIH

[2] = target: T2, WEE1 (Homo sapiens, UniProt P30291+Q96SW2); assay: Western-blot assay, substrate protein degradation in hPBMCs: WEE1; settings: for WEE1 substrate protein remaining %: compounds at 50 nM and 500 nM, 24 hours; for substrate protein remaining % WEE1: 24 hours of compound treatment, 50 nM and 500 nM
T2 construct: effects of the compounds of the present disclosure on the expression of target proteins in cells; endogenous in cells; host or cells: human PBMCs (hPBMCs)
T2 sequence (P30291 whole entry): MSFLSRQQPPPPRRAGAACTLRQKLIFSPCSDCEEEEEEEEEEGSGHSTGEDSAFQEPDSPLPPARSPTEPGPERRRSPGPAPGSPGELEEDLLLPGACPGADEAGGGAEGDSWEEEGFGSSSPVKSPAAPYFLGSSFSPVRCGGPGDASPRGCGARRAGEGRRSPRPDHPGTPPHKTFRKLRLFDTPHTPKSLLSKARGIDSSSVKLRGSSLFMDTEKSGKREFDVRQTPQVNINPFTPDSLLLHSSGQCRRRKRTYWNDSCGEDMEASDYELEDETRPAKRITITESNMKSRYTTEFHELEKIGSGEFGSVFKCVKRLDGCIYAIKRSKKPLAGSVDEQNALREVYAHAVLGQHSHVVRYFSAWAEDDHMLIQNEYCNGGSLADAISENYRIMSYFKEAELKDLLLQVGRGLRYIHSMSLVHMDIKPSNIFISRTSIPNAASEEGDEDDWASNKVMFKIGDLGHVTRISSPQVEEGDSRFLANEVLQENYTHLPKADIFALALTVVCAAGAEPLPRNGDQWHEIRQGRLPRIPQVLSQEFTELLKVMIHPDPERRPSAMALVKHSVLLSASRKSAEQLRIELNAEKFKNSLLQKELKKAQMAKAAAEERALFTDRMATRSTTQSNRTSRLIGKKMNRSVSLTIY
T2 sequence (Q96SW2 whole entry): as the sequence (Q96SW2 whole entry) above
T2 sequence (Q16531 whole entry partner): as the sequence (Q16531 whole entry partner) above

[3] = target: T3, GSPT1 (Homo sapiens, UniProt P15170+Q96SW2); assay: Western-blot assay, substrate protein degradation in hPBMCs: GSPT1; settings: for GSPT1 substrate protein remaining %: compounds at 50 nM and 500 nM, 24 hours; for substrate protein remaining % GSPT1: 24 hours of compound treatment, 50 nM and 500 nM
T3 construct: effects of the compounds of the present disclosure on the expression of target proteins in cells; endogenous in cells; host or cells: human PBMCs (hPBMCs)
T3 sequence (P15170 whole entry): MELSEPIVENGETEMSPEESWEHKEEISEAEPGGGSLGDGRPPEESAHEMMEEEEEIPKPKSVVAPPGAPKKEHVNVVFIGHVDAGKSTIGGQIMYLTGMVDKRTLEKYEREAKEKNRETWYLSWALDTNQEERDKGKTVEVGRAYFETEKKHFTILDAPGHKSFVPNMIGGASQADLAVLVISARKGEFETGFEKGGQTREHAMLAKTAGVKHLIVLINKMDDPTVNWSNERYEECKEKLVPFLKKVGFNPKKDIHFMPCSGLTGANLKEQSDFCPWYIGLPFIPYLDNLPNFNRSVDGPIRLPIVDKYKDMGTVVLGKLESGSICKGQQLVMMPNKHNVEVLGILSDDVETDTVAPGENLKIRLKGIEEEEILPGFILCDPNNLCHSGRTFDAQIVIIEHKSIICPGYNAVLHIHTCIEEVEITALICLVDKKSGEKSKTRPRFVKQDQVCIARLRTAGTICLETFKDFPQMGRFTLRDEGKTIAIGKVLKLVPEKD
T3 sequence (Q96SW2 whole entry): as the sequence (Q96SW2 whole entry) above
T3 sequence (Q16531 whole entry partner): as the sequence (Q16531 whole entry partner) above

[4] = target: T4, IKZF3 (Homo sapiens, UniProt Q96SW2+Q9UKT9); assay: Western-blot assay, substrate protein degradation in hPBMCs: IKZF3; settings: for IKZF3 substrate protein remaining %: compounds at 50 nM and 500 nM, 24 hours; for substrate protein remaining % IKZF3: 24 hours of compound treatment, 50 nM and 500 nM
T4 construct: effects of the compounds of the present disclosure on the expression of target proteins in cells; endogenous in cells; host or cells: human PBMCs (hPBMCs)
T4 sequence (Q9UKT9 whole entry): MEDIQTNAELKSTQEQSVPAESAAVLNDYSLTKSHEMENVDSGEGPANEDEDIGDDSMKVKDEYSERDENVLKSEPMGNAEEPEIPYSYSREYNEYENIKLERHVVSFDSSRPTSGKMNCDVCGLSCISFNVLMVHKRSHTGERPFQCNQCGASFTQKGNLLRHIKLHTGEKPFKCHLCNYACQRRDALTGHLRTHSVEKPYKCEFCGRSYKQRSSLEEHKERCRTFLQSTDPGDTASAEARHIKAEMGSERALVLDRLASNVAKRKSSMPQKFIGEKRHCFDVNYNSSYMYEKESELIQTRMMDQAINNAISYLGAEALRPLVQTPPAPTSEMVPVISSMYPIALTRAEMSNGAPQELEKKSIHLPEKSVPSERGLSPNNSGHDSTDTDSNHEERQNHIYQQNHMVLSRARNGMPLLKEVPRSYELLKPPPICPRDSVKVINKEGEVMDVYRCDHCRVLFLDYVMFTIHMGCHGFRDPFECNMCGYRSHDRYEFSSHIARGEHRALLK
T4 sequence (Q96SW2 whole entry): as the sequence (Q96SW2 whole entry) above
T4 sequence (Q16531 whole entry partner): as the sequence (Q16531 whole entry partner) above

[5] = target: T5, IKZF1 (Homo sapiens, UniProt Q13422+Q96SW2); assay: Western-blot assay, substrate protein degradation in hPBMCs: IKZF1; settings: for IKZF1 substrate protein remaining %: compounds at 50 nM and 500 nM, 24 hours; for substrate protein remaining % IKZF1: 24 hours of compound treatment, 50 nM and 500 nM
T5 construct: effects of the compounds of the present disclosure on the expression of target proteins in cells; endogenous in cells; host or cells: human PBMCs (hPBMCs)
T5 sequence (Q13422 whole entry): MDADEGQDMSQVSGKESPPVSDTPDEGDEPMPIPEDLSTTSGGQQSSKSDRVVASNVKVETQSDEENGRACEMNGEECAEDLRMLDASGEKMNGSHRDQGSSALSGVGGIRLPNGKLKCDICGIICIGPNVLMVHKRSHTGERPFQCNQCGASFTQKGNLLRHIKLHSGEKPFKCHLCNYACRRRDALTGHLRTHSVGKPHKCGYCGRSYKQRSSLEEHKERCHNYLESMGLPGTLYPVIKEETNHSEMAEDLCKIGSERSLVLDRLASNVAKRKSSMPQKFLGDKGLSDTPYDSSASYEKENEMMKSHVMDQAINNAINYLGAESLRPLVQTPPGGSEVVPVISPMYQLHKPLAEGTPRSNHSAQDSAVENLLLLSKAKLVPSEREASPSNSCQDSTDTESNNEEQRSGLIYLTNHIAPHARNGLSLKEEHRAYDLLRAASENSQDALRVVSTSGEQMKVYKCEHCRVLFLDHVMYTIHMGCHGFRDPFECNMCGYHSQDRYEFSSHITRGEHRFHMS
T5 sequence (Q96SW2 whole entry): as the sequence (Q96SW2 whole entry) above
T5 sequence (Q16531 whole entry partner): as the sequence (Q16531 whole entry partner) above

[6] = target: T6, IKZF2 (Homo sapiens, UniProt Q96SW2+Q9UKS7); assay: Western-blot assay, substrate protein degradation in hPBMCs: IKZF2; settings: for IKZF2 substrate protein remaining %: compounds at 50 nM and 500 nM, 24 hours; for substrate protein remaining % IKZF2: 24 hours of compound treatment, 50 nM and 500 nM
T6 construct: effects of the compounds of the present disclosure on the expression of target proteins in cells; endogenous in cells; host or cells: human PBMCs (hPBMCs)

SMILES	CK1α substrate protein remaining % [1]	WEE1 substrate protein remaining % [2]	GSPT1 substrate protein remaining % [3]	IKZF3 substrate protein remaining % [4]	IKZF1 substrate protein remaining % [5]	IKZF2 substrate protein remaining % [6]	substrate protein remaining % CK1α [1]	substrate protein remaining % WEE1 [2]	substrate protein remaining % GSPT1 [3]	substrate protein remaining % IKZF3 [4]	substrate protein remaining % IKZF1 [5]	substrate protein remaining % IKZF2 [6]
O=C1CCN(N2C(=O)c3ccc(CN4CCN(c5ccc(Cl)cn5)CC4)cc3C2=O)C(=O)N1 [GT-05350, 5-((4-(5-chloropyridin-2-yl)piperazin-1-yl)methyl)-2-(2,4-dioxotetrahydropyrimidin-1(2H)-yl)isoindoline-1,3-dione]	B ("B" is defined as 80%< substrate protein remaining %≤ 100%)	B ("B" is defined as 80%< substrate protein remaining %≤ 100%)	A ("A" is defined as 0% ≤ substrate protein remaining % ≤ 80%)	B ("B" is defined as 80%< substrate protein remaining %≤ 100%)	B ("B" is defined as 80%< substrate protein remaining %≤ 100%)	B ("B" is defined as 80%< substrate protein remaining %≤ 100%)	–	–	–	–	–	–
Cc1cccc(N2CCN(Cc3ccc4c(c3)C(=O)N(N3CCC(=O)NC3=O)C4=O)CC2)n1 [GT-05352, 2-(2,4-dioxotetrahydropyrimidin-1(2H)-yl)-5-((4-(6-methylpyridin-2-yl)piperazin-1-yl)methyl)isoindoline-1,3-dione]	B ("B" is defined as 80%< substrate protein remaining %≤ 100%)	B ("B" is defined as 80%< substrate protein remaining %≤ 100%)	A ("A" is defined as 0% ≤ substrate protein remaining % ≤ 80%)	B ("B" is defined as 80%< substrate protein remaining %≤ 100%)	B ("B" is defined as 80%< substrate protein remaining %≤ 100%)	A ("A" is defined as 0% ≤ substrate protein remaining % ≤ 80%)	–	–	–	–	–	–
O=C1CCN(N2Cc3cc(CN4CCN(c5nccc(Cl)c5F)CC4)ccc3C2=O)C(=O)N1 [GT-05358, 1-(5-((4-(4-chloro-3-fluoropyridin-2-yl)piperazin-1-yl)methyl)-1-oxoisoindolin-2-yl)dihydropyrimidine-2,4(1H,3H)-dione]	B ("B" is defined as 80%< substrate protein remaining %≤ 100%)	B ("B" is defined as 80%< substrate protein remaining %≤ 100%)	A ("A" is defined as 0% ≤ substrate protein remaining % ≤ 80%)	B ("B" is defined as 80%< substrate protein remaining %≤ 100%)	B ("B" is defined as 80%< substrate protein remaining %≤ 100%)	B ("B" is defined as 80%< substrate protein remaining %≤ 100%)	–	–	–	–	–	–
O=C1CCN(N2Cc3cc(CN4CCN(c5nccc(I)c5F)CC4)ccc3C2=O)C(=O)N1 [GT-05406, 1-(5-((4-(3-fluoro-4-iodopyridin-2-yl)piperazin-1-yl)methyl)-1-oxoisoindolin-2-yl)dihydropyrimidine-2,4(1H,3H)-dione]	B ("B" is defined as 80%< substrate protein remaining %≤ 100%)	A ("A" is defined as 0% ≤ substrate protein remaining % ≤ 80%)	A ("A" is defined as 0% ≤ substrate protein remaining % ≤ 80%)	B ("B" is defined as 80%< substrate protein remaining %≤ 100%)	B ("B" is defined as 80%< substrate protein remaining %≤ 100%)	A ("A" is defined as 0% ≤ substrate protein remaining % ≤ 80%)	B (80%< substrate protein remaining %≤ 100%)	B (80%< substrate protein remaining %≤ 100%)	A (0% ≤ substrate protein remaining % ≤ 80%)	B (80%< substrate protein remaining %≤ 100%)	B (80%< substrate protein remaining %≤ 100%)	B (80%< substrate protein remaining %≤ 100%)
O=C1CCN(N2Cc3cc(CN4CCN(c5nccc(Cl)c5Br)CC4)ccc3C2=O)C(=O)N1 [GT-05432, 1-(5-((4-(3-bromo-4-chloropyridin-2-yl)piperazin-1-yl)methyl)-1-oxoisoindolin-2-yl)dihydropyrimidine-2,4(1H,3H)-dione]	B ("B" is defined as 80%< substrate protein remaining %≤ 100%)	A ("A" is defined as 0% ≤ substrate protein remaining % ≤ 80%)	B ("B" is defined as 80%< substrate protein remaining %≤ 100%)	B ("B" is defined as 80%< substrate protein remaining %≤ 100%)	B ("B" is defined as 80%< substrate protein remaining %≤ 100%)	B ("B" is defined as 80%< substrate protein remaining %≤ 100%)	B (80%< substrate protein remaining %≤ 100%)	A (0% ≤ substrate protein remaining % ≤ 80%)	A (0% ≤ substrate protein remaining % ≤ 80%)	B (80%< substrate protein remaining %≤ 100%)	B (80%< substrate protein remaining %≤ 100%)	B (80%< substrate protein remaining %≤ 100%)
O=C1CCN(N2Cc3cc(CN4CCN(c5ncc(C(F)(F)F)cc5Cl)CC4)ccc3C2=O)C(=O)N1 [GT-05433, 1-(5-((4-(3-chloro-5-(trifluoromethyl)pyridin-2-yl)piperazin-1-yl)methyl)-1-oxoisoindolin-2-yl)dihydropyrimidine-2,4(1H,3H)-dione]	B ("B" is defined as 80%< substrate protein remaining %≤ 100%)	A ("A" is defined as 0% ≤ substrate protein remaining % ≤ 80%)	A ("A" is defined as 0% ≤ substrate protein remaining % ≤ 80%)	B ("B" is defined as 80%< substrate protein remaining %≤ 100%)	B ("B" is defined as 80%< substrate protein remaining %≤ 100%)	B ("B" is defined as 80%< substrate protein remaining %≤ 100%)	B (80%< substrate protein remaining %≤ 100%)	A (0% ≤ substrate protein remaining % ≤ 80%)	A (0% ≤ substrate protein remaining % ≤ 80%)	B (80%< substrate protein remaining %≤ 100%)	B (80%< substrate protein remaining %≤ 100%)	A (0% ≤ substrate protein remaining % ≤ 80%)
O=C1CCN(N2Cc3cc(CN4CCN(c5cccnc5)CC4)ccc3C2=O)C(=O)N1 [GT-05434, 1-(1-oxo-5-((4-(pyridin-3-yl)piperazin-1-yl)methyl)isoindolin-2-yl)dihydropyrimidine-2,4(1H,3H)-dione]	B ("B" is defined as 80%< substrate protein remaining %≤ 100%)	A ("A" is defined as 0% ≤ substrate protein remaining % ≤ 80%)	A ("A" is defined as 0% ≤ substrate protein remaining % ≤ 80%)	B ("B" is defined as 80%< substrate protein remaining %≤ 100%)	B ("B" is defined as 80%< substrate protein remaining %≤ 100%)	B ("B" is defined as 80%< substrate protein remaining %≤ 100%)	A (0% ≤ substrate protein remaining % ≤ 80%)	A (0% ≤ substrate protein remaining % ≤ 80%)	A (0% ≤ substrate protein remaining % ≤ 80%)	B (80%< substrate protein remaining %≤ 100%)	B (80%< substrate protein remaining %≤ 100%)	A (0% ≤ substrate protein remaining % ≤ 80%)
O=C1CCN(N2Cc3cc(CN4CCN(c5ccc(Cl)nc5)CC4)ccc3C2=O)C(=O)N1 [GT-05435, 1-(5-((4-(6-chloropyridin-3-yl)piperazin-1-yl)methyl)-1-oxoisoindolin-2-yl)dihydropyrimidine-2,4(1H,3H)-dione]	B ("B" is defined as 80%< substrate protein remaining %≤ 100%)	A ("A" is defined as 0% ≤ substrate protein remaining % ≤ 80%)	A ("A" is defined as 0% ≤ substrate protein remaining % ≤ 80%)	B ("B" is defined as 80%< substrate protein remaining %≤ 100%)	B ("B" is defined as 80%< substrate protein remaining %≤ 100%)	B ("B" is defined as 80%< substrate protein remaining %≤ 100%)	–	–	–	–	–	–
O=C1CCN(N2Cc3cc(CN4CCN(c5cncc(Cl)c5Cl)CC4)ccc3C2=O)C(=O)N1 [GT-05436, 1-(5-((4-(4,5-dichloropyridin-3-yl)piperazin-1-yl)methyl)-1-oxoisoindolin-2-yl)dihydropyrimidine-2,4(1H,3H)-dione]	B ("B" is defined as 80%< substrate protein remaining %≤ 100%)	A ("A" is defined as 0% ≤ substrate protein remaining % ≤ 80%)	A ("A" is defined as 0% ≤ substrate protein remaining % ≤ 80%)	B ("B" is defined as 80%< substrate protein remaining %≤ 100%)	B ("B" is defined as 80%< substrate protein remaining %≤ 100%)	B ("B" is defined as 80%< substrate protein remaining %≤ 100%)	B (80%< substrate protein remaining %≤ 100%)	A (0% ≤ substrate protein remaining % ≤ 80%)	A (0% ≤ substrate protein remaining % ≤ 80%)	B (80%< substrate protein remaining %≤ 100%)	B (80%< substrate protein remaining %≤ 100%)	B (80%< substrate protein remaining %≤ 100%)
